Assay results from PMC10329973 (Clinical pharmacology in drug development, 2023).
Values joined by “and” are separate entries in the source; they are usually repeats but may differ in a detail not shown here. Equal entries are not always repeated.

Test system: healthy adult volunteers
Test: Multiple ascending dose study NP10679-102, safety and tolerability
Type: in vivo, human
Conditions: MAD; for Subjects with at least one TEAE / TEAE, system organ class: Blood and lymphatic system disorders / TEAE, system organ class: Eye disorders / TEAE, system organ class: Gastrointestinal disorders / TEAE, system organ class: General disorders and administration site conditions / TEAE, system organ class: Injury, poisoning and procedural complications / TEAE, system organ class: Investigations / TEAE, system organ class: Musculoskeletal and connective tissue disorders / TEAE, system organ class: Nervous system disorders / TEAE, system organ class: Skin and subcutaneous tissue disorders / TEAE, system organ class: Vascular disorders / TEAE: Anaemia / TEAE: Asthenia / TEAE: Back pain / TEAE: Blood pressure diastolic decreased / TEAE: Contusion / TEAE: Dizziness / TEAE: Dysgeusia / TEAE: Erythema / TEAE: Fatigue / TEAE: Head injury / TEAE: Headache / TEAE: Nausea / TEAE: Pain / TEAE: Peripheral swelling / TEAE: Phlebitis / TEAE: Somnolence / TEAE: Syncope / TEAE: Vision blurred: N = 6

For `O=C1CCc2cc(OC[C@H](O)CN3CCN(c4ccc(C(F)(F)F)cc4)CC3)ccc2N1` [NP10679, (R)-6-(2-Hydroxy-3-(4-(4-(trifluoromethyl)phenyl)piperazin-1-yl)propoxy)-3,4-dihydroquinolin-2(1H)-one], the “dissociative symptoms or cognitive impairment (CADSS, DSST)” value was “no evidence”, the “serious adverse events (SAEs)” value was “No serious adverse events” and the “Subjects with at least one TEAE” value (25 mg IV once daily x 5 days) was 5 (83.3%) n (%). The “TEAE, system organ class: Blood and lymphatic system disorders” value (“TEAE … Blood and lymphatic system disorders” below) (25 mg IV once daily x 5 days) was 2 (33.3%) n (%), the “TEAE, system organ class: Eye disorders” value (25 mg IV once daily x 5 days) was 0 n (%) and the “TEAE, system organ class: Gastrointestinal disorders” value (“TEAE … Gastrointestinal disorders” for short) (25 mg IV once daily x 5 days) was 0 n (%). The “TEAE, system organ class: General disorders and administration site conditions” value (25 mg IV once daily x 5 days) was 1 (16.7%) n (%), the “TEAE, system organ class: Injury, poisoning and procedural complications” value (“TEAE, system organ class: Injury” below) (25 mg IV once daily x 5 days) was 2 (33.3%) n (%) and the “TEAE, system organ class: Investigations” value (25 mg IV once daily x 5 days) was 1 (16.7%) n (%). The “TEAE, system organ class: Musculoskeletal and connective tissue disorders” value (25 mg IV once daily x 5 days) was 0 n (%), the “TEAE, system organ class: Nervous system disorders” value (“TEAE … Nervous system disorders” below) (25 mg IV once daily x 5 days) was 3 (50.0%) n (%) and the “TEAE, system organ class: Skin and subcutaneous tissue disorders” value (25 mg IV once daily x 5 days) was 0 n (%). The “TEAE, system organ class: Vascular disorders” value (“TEAE … Vascular disorders” for short) (25 mg IV once daily x 5 days) was 0 n (%), the “TEAE: Anaemia” value (25 mg IV once daily x 5 days) was 2 (33.3%) n (%) and the “TEAE: Asthenia” value (25 mg IV once daily x 5 days) was 0 n (%). The “TEAE: Back pain” value (25 mg IV once daily x 5 days) was 0 n (%), the “TEAE: Blood pressure diastolic decreased” value (25 mg IV once daily x 5 days) was 1 (16.7%) n (%) and the “TEAE: Contusion” value (25 mg IV once daily x 5 days) was 2 (33.3%) n (%). The “TEAE: Dizziness” value (25 mg IV once daily x 5 days) was 0 n (%), the “TEAE: Dysgeusia” value (25 mg IV once daily x 5 days) was 1 (16.7%) n (%) and the “TEAE: Erythema” value (25 mg IV once daily x 5 days) was 0 n (%). The “TEAE: Fatigue” value (25 mg IV once daily x 5 days) was 1 (16.7%) n (%), the “TEAE: Head injury” value (25 mg IV once daily x 5 days) was 0 n (%) and the “TEAE: Headache” value (25 mg IV once daily x 5 days) was 2 (33.3%) n (%). For the same compound, the “TEAE: Nausea” value (25 mg IV once daily x 5 days) was 0 n (%), the “TEAE: Pain” value (25 mg IV once daily x 5 days) was 0 n (%) and the “TEAE: Peripheral swelling” value (25 mg IV once daily x 5 days) was 0 n (%). The “TEAE: Phlebitis” value (25 mg IV once daily x 5 days) was 0 n (%), the “TEAE: Somnolence” value (25 mg IV once daily x 5 days) was 0 n (%) and the “TEAE: Syncope” value (25 mg IV once daily x 5 days) was 0 n (%). The “TEAE: Vision blurred” value (25 mg IV once daily x 5 days) was 0 n (%), the “Subjects with at least one TEAE” value (50 mg IV once daily x 5 days) was 3 (50.0%) n (%) and the “TEAE … Blood and lymphatic system disorders” value (50 mg IV once daily x 5 days) was 0 n (%). The “TEAE, system organ class: Eye disorders” value (50 mg IV once daily x 5 days) was 0 n (%), the “TEAE … Gastrointestinal disorders” value (50 mg IV once daily x 5 days) was 0 n (%) and the “TEAE, system organ class: General disorders and administration site conditions” value (50 mg IV once daily x 5 days) was 2 (33.3%) n (%). The “TEAE, system organ class: Injury” value (50 mg IV once daily x 5 days) was 1 (16.7%) n (%), the “TEAE, system organ class: Investigations” value (50 mg IV once daily x 5 days) was 0 n (%) and the “TEAE, system organ class: Musculoskeletal and connective tissue disorders” value (50 mg IV once daily x 5 days) was 0 n (%). For the same compound, the “TEAE … Nervous system disorders” value (50 mg IV once daily x 5 days) was 3 (50.0%) n (%), the “TEAE, system organ class: Skin and subcutaneous tissue disorders” value (50 mg IV once daily x 5 days) was 1 (16.7%) n (%) and the “TEAE … Vascular disorders” value (50 mg IV once daily x 5 days) was 0 n (%). The “TEAE: Anaemia” value (50 mg IV once daily x 5 days) was 0 n (%), the “TEAE: Asthenia” value (50 mg IV once daily x 5 days) was 0 n (%) and the “TEAE: Back pain” value (50 mg IV once daily x 5 days) was 0 n (%). For the same compound, the “TEAE: Blood pressure diastolic decreased” value (50 mg IV once daily x 5 days) was 0 n (%), the “TEAE: Contusion” value (50 mg IV once daily x 5 days) was 1 (16.7%) n (%) and the “TEAE: Dizziness” value (50 mg IV once daily x 5 days) was 0 n (%). The “TEAE: Dysgeusia” value (50 mg IV once daily x 5 days) was 0 n (%), the “TEAE: Erythema” value (50 mg IV once daily x 5 days) was 1 (16.7%) n (%) and the “TEAE: Fatigue” value (50 mg IV once daily x 5 days) was 1 (16.7%) n (%). The “TEAE: Head injury” value (50 mg IV once daily x 5 days) was 0 n (%), the “TEAE: Headache” value (50 mg IV once daily x 5 days) was 0 n (%) and the “TEAE: Nausea” value (50 mg IV once daily x 5 days) was 0 n (%). For the same compound, the “TEAE: Pain” value (50 mg IV once daily x 5 days) was 1 (16.7%) n (%), the “TEAE: Peripheral swelling” value (50 mg IV once daily x 5 days) was 1 (16.7%) n (%) and the “TEAE: Phlebitis” value (50 mg IV once daily x 5 days) was 0 n (%). For the same compound, the “TEAE: Somnolence” value (50 mg IV once daily x 5 days) was 3 n (%) and 3 (50.0%) n (%), the “TEAE: Syncope” value (50 mg IV once daily x 5 days) was 0 n (%) and the “TEAE: Vision blurred” value (50 mg IV once daily x 5 days) was 0 n (%). The “Subjects with at least one TEAE” value (100 mg IV once daily x 5 days) was 6 (100%) n (%), the “TEAE … Blood and lymphatic system disorders” value (100 mg IV once daily x 5 days) was 1 (16.7%) n (%) and the “TEAE, system organ class: Eye disorders” value (100 mg IV once daily x 5 days) was 0 n (%). The “TEAE … Gastrointestinal disorders” value (100 mg IV once daily x 5 days) was 1 (16.7%) n (%), the “TEAE, system organ class: General disorders and administration site conditions” value (100 mg IV once daily x 5 days) was 1 (16.7%) n (%) and the “TEAE, system organ class: Injury” value (100 mg IV once daily x 5 days) was 1 (16.7%) n (%). For the same compound, the “TEAE, system organ class: Investigations” value (100 mg IV once daily x 5 days) was 0 n (%), the “TEAE, system organ class: Musculoskeletal and connective tissue disorders” value (100 mg IV once daily x 5 days) was 0 n (%) and the “TEAE … Nervous system disorders” value (100 mg IV once daily x 5 days) was 4 (66.7%) n (%). For the same compound, the “TEAE, system organ class: Skin and subcutaneous tissue disorders” value (100 mg IV once daily x 5 days) was 0 n (%), the “TEAE … Vascular disorders” value (100 mg IV once daily x 5 days) was 1 (16.7%) n (%) and the “TEAE: Anaemia” value (100 mg IV once daily x 5 days) was 1 (16.7%) n (%). The “TEAE: Asthenia” value (100 mg IV once daily x 5 days) was 1 (16.7%) n (%), the “TEAE: Back pain” value (100 mg IV once daily x 5 days) was 0 n (%) and the “TEAE: Blood pressure diastolic decreased” value (100 mg IV once daily x 5 days) was 0 n (%). For the same compound, the “TEAE: Contusion” value (100 mg IV once daily x 5 days) was 0 n (%), the “TEAE: Dizziness” value (100 mg IV once daily x 5 days) was 0 n (%) and the “TEAE: Dysgeusia” value (100 mg IV once daily x 5 days) was 0 n (%). For the same compound, the “TEAE: Erythema” value (100 mg IV once daily x 5 days) was 0 n (%), the “TEAE: Fatigue” value (100 mg IV once daily x 5 days) was 0 n (%) and the “TEAE: Head injury” value (100 mg IV once daily x 5 days) was 1 (16.7%) n (%). The “TEAE: Headache” value (100 mg IV once daily x 5 days) was 2 (33.3%) n (%), the “TEAE: Nausea” value (100 mg IV once daily x 5 days) was 1 (16.7%) n (%) and the “TEAE: Pain” value (100 mg IV once daily x 5 days) was 1 (16.7%) n (%). For the same compound, the “TEAE: Peripheral swelling” value (100 mg IV once daily x 5 days) was 0 n (%), the “TEAE: Phlebitis” value (100 mg IV once daily x 5 days) was 1 (16.7%) n (%) and the “TEAE: Somnolence” value (100 mg IV once daily x 5 days) was 3 n (%) and 3 (50.0%) n (%). For the same compound, the “TEAE: Syncope” value (100 mg IV once daily x 5 days) was 1 (16.7%) n (%), the “TEAE: Vision blurred” value (100 mg IV once daily x 5 days) was 0 n (%) and the “somnolence upon repeat dosing” value (5 days of dosing) was “no signs of increased somnolence”.
